This is an account of results in PubChem BioAssay (NCI).

Each structure is given as a SMILES string.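 All cell lines were grown in 96-well plates and treated with compound for 48 hours. At the GI50, growth is halved. At the TGI there is no net growth.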

Common to all, as to assay: growth of human tumour cells (NCI), 48 h
Experiment [1] deals with CCRF-CEM leukemia.
The test system of experiment [2] is TK-10 renal.
The test system of experiment [3] is CAKI-1 renal.
The test system of experiment [4] is SF-295 CNS.
In experiment [5] the test system is PC-3 prostate.
Experiment [6] has as its system NCI-H460 lung.
Experiment [7] deals with SF-539 CNS.
Experiment [8] deals with HOP-62 NSCLC.
Experiment [9] has as its system DU-145 prostate.
Experiment [10] relates to K-562 leukemia.

On to `O=C(Nc1ccccc1Cl)c1ccc(NC2=C(Cl)C(=O)N(C3CCCCC3)C2=O)cc1`, for which the GI50 is 8.29 µM in experiment [1]; 20.6 µM in [2]; 22.9 µM in [3]; 26.4 µM in [4]; 13.6 µM in experiment [5]; 19.7 µM in experiment [6]. Moreover, the GI50 in [7] was 27.3 µM; in experiment [8], 8.37 µM; in [9], 6.78 µM; in experiment [10], 2.88 µM. The TGI in experiment [1] worked out at 33.5 µM; in [2] it was 44.3 µM; in experiment [3] it was 56.5 µM; in experiment [4] it was 68.1 µM; in experiment [5], 45.5 µM; in experiment [6] it was 52.1 µM. Further, the TGI in experiment [7] came to 58.5 µM; in experiment [8], 29.3 µM; in experiment [9], 23.9 µM; in [10] it was 17.9 µM.

For the molecule `CCCS(=O)(=O)Nc1cccc(Nc2ncnc3cc(NC(=O)CCl)ccc23)c1Cl`, the GI50 was 1.03 µM in [1]; 3.21 µM in [2]; 2.32 µM in experiment [3]; 3.33 µM in experiment [4]; 3.44 µM in experiment [5]; 3.67 µM in experiment [6]. For the same molecule, the GI50 is 1.35 µM in [7], 2.36 µM in [8], 3.09 µM in experiment [9] and 1.04 µM in experiment [10]. The TGI amounted to 4.68 µM in experiment [1]; 7 µM in experiment [2]; 5.95 µM in experiment [3]; 7.17 µM in [4]; 8.44 µM in [5]; 8.06 µM in experiment [6]. Moreover, the TGI came to 4.54 µM in experiment [7], 7.12 µM in experiment [8], 6.31 µM in experiment [9] and 17.1 µM in [10].

With `COc1ccc(C2CC(c3ccc(OC)cc3O)=NN2c2ccc(S(N)(=O)=O)cc2)cc1` (centres undefined), the GI50 is 16.1 µM in [1]; 7.18 µM in experiment [2]; 6.74 µM in [3]; 29.4 µM in experiment [4]; 4.29 µM in experiment [5]; 6.74 µM in experiment [6]. Also, the GI50 is 30.2 µM in experiment [7], 33.1 µM in experiment [8], 44.5 µM in experiment [9] and 5.71 µM in [10]. Moreover, the TGI in experiment [1] was more than 100 µM; in experiment [2] it was more than 100 µM; in experiment [3] it was 91.9 µM; in [4], more than 100 µM; in experiment [5], more than 100 µM; in experiment [6], 39.2 µM. Also, the TGI in [7], in experiment [8], in [9] and in experiment [10] was more than 100 µM in each case.

As to `O=C1/C(=C/c2ccc(F)cc2)CN(C(=O)C(Cl)Cl)C/C1=C\c1ccc(F)cc1`, the GI50 is 0.136 µM in [1]; 0.67 µM in [2]; 0.309 µM in experiment [3]; 0.23 µM in experiment [4]; 0.25 µM in experiment [5]; 0.294 µM in experiment [6]. In addition, the GI50 in [7] is 0.269 µM; in experiment [8] it was 0.407 µM; in experiment [9] it was 0.671 µM; in [10], 0.0533 µM. Moreover, the TGI is more than 24.2 µM in experiment [1]; 1.96 µM in experiment [2]; 1.08 µM in experiment [3]; 0.67 µM in experiment [4]; 0.818 µM in experiment [5]; 0.878 µM in experiment [6]. Moreover, the TGI was 0.791 µM in experiment [7], 1.51 µM in experiment [8], 1.74 µM in experiment [9] and more than 100 µM in experiment [10].

As to `CCOC(=O)c1c2c(n3ccc(NC(=O)CCN4CCCCC4)cc13)C(=O)c1ncccc1C2=O`, the GI50 is 1.18 µM in [1]; 0.171 µM in experiment [2]; 0.0279 µM in [3]; 0.121 µM in experiment [4]; 1.2 µM in [5]; less than 0.01 µM in experiment [6]. Also, the GI50 in experiment [7] is 0.292 µM; in [8] it was 0.0229 µM; in experiment [9], 1.2 µM; in experiment [10], 0.117 µM. Also, the TGI in experiment [1] was 3.68 µM; in [2], 2.25 µM; in experiment [3], 4.18 µM; in experiment [4], 1.92 µM; in [5], 2.63 µM; in experiment [6] it was 0.443 µM. Further, the TGI in experiment [7] worked out at 2 µM; in [8] it was 1.83 µM; in experiment [9] it was 2.54 µM; in experiment [10] it was 2.57 µM.

Turning to `O=C(c1ccc2ccccc2c1)c1c(C(F)(F)F)n([O-])c2cc(C(F)(F)F)ccc2[n+]1=O`, the TGI stood at 0.385 µM in [1]; 3.06 µM in experiment [2]; 1.45 µM in experiment [3]; 2.84 µM in [4]; 2.75 µM in experiment [5]; 3.44 µM in experiment [6]. The TGI came out at 3.23 µM in [7], 3.72 µM in experiment [8], 3.12 µM in [9] and 2.9 µM in [10]. The GI50 is 1.68 µM in experiment [2]; 0.621 µM in experiment [3]; 1.45 µM in experiment [4]; 1.34 µM in experiment [5]; 1.66 µM in [6]; 1.71 µM in [7]. Further, the results for the GI50 in [8], in experiment [9] and in experiment [10] were 1.92 µM, 1.67 µM and 1.38 µM, respectively.
